Laboratory results published in ChEMBL document CHEMBL5113420, “Selective inhibition of histone deacetylase 3 by novel hydrazide based small molecules as therapeutic intervention for the treatment of cancer” (Eur J Med Chem, 2022).
Several values for one entry are separate records, joined by “and”; a condition that tells them apart may be missing. Identical values can stand only once. Activity calls are given as the source filed them. No cut-off for these calls is given here.

Experiments:
[1] = Tmax in Wistar rat at 25 mg/kg, iv measured upto 24 hrs by HPLC analysis; format: ADME, organism-based; details: in vivo
[2] = MRT in Wistar rat at 25 mg/kg, iv measured upto 24 hrs by HPLC analysis; format: ADME, organism-based; details: in vivo
[3] = Toxicity in Balb/c mouse implanted with mouse 4T1 Luc cells assessed as heart tissue damage at 15 mg/kg by H and E staining; format: organism-based; details: in vivo
4T1 [4] = assay: Induction of apoptosis in mouse 4T1 Luc cells implanted in Balb/c mouse assessed as upregulation of caspase 3 level at 15 to 25 mg/kg incubated for 24 hrs by Western blot analysis; format: functional, organism-based; details: dose 15-25 mg/kg
[5] = AUC (0 to infinity) in Wistar rat at 15 mg/kg, iv measured upto 24 hrs by HPLC analysis; format: ADME, organism-based; design: time < 24 hrs, dose 15 mg/kg, route iv; details: in vivo
4T1 [6] = assay: Induction of apoptosis in mouse 4T1 Luc cells implanted in Balb/c mouse downregulation of Bcl2 expression at 15 to 25 mg/kg incubated for 24 hrs by Western blot analysis; format: functional, organism-based; details: dose 15-25 mg/kg
[7] = Toxicity in Balb/c mouse implanted with mouse 4T1 Luc cells assessed as lung tissue damage at 15 mg/kg by H and E staining; format: organism-based; details: in vivo
4T1 [8] = assay: Induction of intracellular ROS generation in mouse 4T1 Luc cells implanted in Balb/c mouse assessed as increase fluorescence intensity at 15 mg/kg measured after 21 days by DCFH-DA probe based fluorescent microscopy analysis; format: functional, organism-based; details: time 21.0 day
[9] = MRT in Wistar rat at 15 mg/kg, iv measured upto 24 hrs by HPLC analysis; format: ADME, organism-based; details: in vivo
[10] = Toxicity in Balb/c mouse implanted with mouse 4T1 Luc cells assessed as kidney tissue damage at 15 mg/kg by H and E staining; format: organism-based; details: in vivo
4T1 [11] = assay: Cytotoxicity against mouse 4T1 cells assessed as increase in chromosomal condensation at 1.92 uM measured after 48 hrs by acridine orange and DAPI staining based fluorescence microscope assay; format: functional, cell-based
[12] = Tmax in Wistar rat at 15 mg/kg, ip measured upto 24 hrs by HPLC analysis; format: ADME, organism-based; details: in vivo
[13] = Cmax in Wistar rat at 25 mg/kg, iv measured upto 24 hrs by HPLC analysis; format: ADME, organism-based; design: dose 25 mg/kg, time < 24 hrs, route iv; details: in vivo
4T1 [14] = assay: Induction of apoptosis in mouse 4T1 Luc cells implanted in Balb/c mouse reduction in EGFR expression at 15 to 25 mg/kg incubated for 24 hrs by Western blot analysis; format: functional, organism-based; details: dose 15-25 mg/kg
4T1 [15] = assay: Induction of apoptosis in mouse 4T1 Luc cells implanted in Balb/c mouse assessed as increase in ROS generation at 25 mg/kg by fluorescent microscopy analysis; format: functional, organism-based

CCCNNC(=O)c1ccc(Nc2ccccc2)cc1
Tmax [1]: 30 min
MRT [2]: 5.13 h
Activity [3]: Non-Toxic
Activity (4T1 [4]): Active
AUC(0-inf) [5]: 160000 ng·h/mL and 593 µM·h
Activity (4T1 [6]): Active
Activity [7]: Non-Toxic
Activity (4T1 [8]): Active
MRT [9]: 5.69 h
Activity [10]: Non-Toxic
Activity (4T1 [11]): Active
Tmax [12]: 2 h
Cmax [13]: 32100 ng/mL and 120 µM
Activity (4T1 [14]): Active
Activity (4T1 [15]): Active
